Earlier results on four molecules are cited in US20170071966A1, “PHARMACEUTICAL COMPOSITION” (priority 2014, published 2017).

Like-named read-outs stand apart in the source and are kept apart here.

The test system of series [1] is mice exposed to whole body radiation. Conditions: beta-carotene alone, given orally before or after whole body radiation.
Assay in series [2]: not given
This is another data set of the same source.

For series [3] the following is noted: a few subjects, gram quantities.
For series [4] the following is noted: mice, drinking water 10, 20 and 30 mg/ml (4000, 8000, 12000 mg/kg body weight), 19-day experiment.
The conditions of series [5]: gerbils, 1% in the food for 8 weeks.
The conditions of series [6]: Senel et al. 1994.
For series [7] the following is noted: Nakane et al. 1996.
For series [8] the following is noted: Zhang et al. 1994.

`CC1=C(/C=C/C(C)=C/C=C/C(C)=C/C=C/C=C(C)/C=C/C=C(C)/C=C/C2=C(C)CCCC2(C)C)C(C)(C)CCC1` [beta-carotene]: the survival from radiation entry in series [1] is “enhance survival”. The “risk of hypervitaminosis A” value (high beta-carotene doses) is given as “no risk of hypervitaminosis A”. The long-term safety entry (patients with erythropoietic protoporphyria, 180 to 300 mg per day) is given as “safe at the highest daily dose for a lifetime”. The acute toxicity result (surveillance over the decades it was a prescription drug) is on record as “no known acute toxicity”.

Regarding `Nc1nc2c(ncn2[C@@H]2O[C@H](COP(=O)(O)O)[C@@H](O)[C@H]2O)c(=O)[nH]1` [guanosine monophosphate, Guanosine Monophosphate], the water solubility result in [2] is “highly water-soluble”. In addition, the ill effects result in series [3] is on record as “no known ill effects”; in [4], “no obvious ill effects”.

On to `Nc1nc2c(ncn2[C@@H]2O[C@H](CO)[C@@H](O)[C@H]2O)c(=O)[nH]1` [guanosine], for which the water solubility result in [2] is recorded as “slightly water-soluble”. Moreover, the deleterious effects entry in series [5] is given as “no obvious deleterious effects”.

Regarding `C[C@H](CCC(=O)[O-])[C@H]1CC[C@H]2[C@@H]3[C@H](O)C[C@@H]4C[C@H](O)CC[C@]4(C)[C@H]3C[C@H](O)[C@]12C.[Na+]` [sodium cholate, Sodium cholate], the “increase of mucosal permeability of fluorescein isothiocyanate” value in series [6] is reported as 100-200 times. The “absorption of luteinizing hormone releasing hormone” value in series [7] is on record as “increased the absorption”. Besides, in series [8], the “buccal absorption of insulin” value is listed as “increased the buccal absorption”.
